Measured values as given in ChEMBL document CHEMBL4421728, “Bach1 Inhibitors in Combination with Nrf2 Activators and Pharmaceutical Compositions Thereof” (2017).

Legend:
[1] = biological target: T1, Transcription regulator protein BACH1 (Homo sapiens) (UniProt O14867); assay: Inhibition of Bach1 in normal human lung fibroblasts assessed as induction of HMOX protein expression at 0.625 uM incubated for 16 to 18 hrs in presence of 0.019 uM Nrf2 activator Bardoxolone methyl by immunostaining relative to control
T1 sequence (whole entry): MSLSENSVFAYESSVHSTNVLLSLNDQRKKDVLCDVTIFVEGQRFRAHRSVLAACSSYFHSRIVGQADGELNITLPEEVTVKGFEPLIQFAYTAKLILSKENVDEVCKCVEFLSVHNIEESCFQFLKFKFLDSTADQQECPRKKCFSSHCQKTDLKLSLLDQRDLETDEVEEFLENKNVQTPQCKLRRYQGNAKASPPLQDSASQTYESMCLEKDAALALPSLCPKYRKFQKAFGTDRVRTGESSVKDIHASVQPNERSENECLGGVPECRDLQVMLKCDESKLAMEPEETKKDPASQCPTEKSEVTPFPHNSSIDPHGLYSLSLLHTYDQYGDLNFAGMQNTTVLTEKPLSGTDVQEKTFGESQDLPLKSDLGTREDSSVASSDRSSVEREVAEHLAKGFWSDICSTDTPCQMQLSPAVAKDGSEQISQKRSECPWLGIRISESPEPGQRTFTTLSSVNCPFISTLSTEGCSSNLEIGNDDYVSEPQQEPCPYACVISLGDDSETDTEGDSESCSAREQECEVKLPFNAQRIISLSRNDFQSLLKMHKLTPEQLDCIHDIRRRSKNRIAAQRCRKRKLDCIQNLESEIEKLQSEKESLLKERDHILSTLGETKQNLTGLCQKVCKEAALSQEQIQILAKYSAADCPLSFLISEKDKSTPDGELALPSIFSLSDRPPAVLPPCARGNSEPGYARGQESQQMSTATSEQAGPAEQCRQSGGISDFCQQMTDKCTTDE

[2] = biological target: T1, Transcription regulator protein BACH1 (Homo sapiens); assay: Inhibition of Bach1 in normal human lung fibroblasts assessed as induction of HMOX protein expression at 0.156 uM incubated for 16 to 18 hrs in presence of 0.019 uM Nrf2 activator Bardoxolone methyl by immunostaining relative to control
[3] = biological target: T1, Transcription regulator protein BACH1 (Homo sapiens); assay: Inhibition of Bach1 in normal human lung fibroblasts assessed as induction of HMOX protein expression at 2.5 uM incubated for 16 to 18 hrs in presence of 0.156 uM Nrf2 activator Bardoxolone methyl by immunostaining relative to control
[4] = biological target: T1, Transcription regulator protein BACH1 (Homo sapiens); assay: Inhibition of Bach1 in normal human lung fibroblasts assessed as induction of HMOX protein expression at 0.312 uM incubated for 16 to 18 hrs in presence of 0.019 uM Nrf2 activator Bardoxolone methyl by immunostaining relative to control
[5] = biological target: T1, Transcription regulator protein BACH1 (Homo sapiens); assay: Inhibition of Bach1 in normal human lung fibroblasts assessed as induction of HMOX protein expression at 0.078 uM incubated for 16 to 18 hrs in presence of 0.156 uM Nrf2 activator Bardoxolone methyl by immunostaining relative to control
[6] = biological target: T1, Transcription regulator protein BACH1 (Homo sapiens); assay: Inhibition of Bach1 in normal human lung fibroblasts assessed as induction of HMOX protein expression at 0.625 uM incubated for 16 to 18 hrs in presence of 0.156 uM Nrf2 activator Bardoxolone methyl by immunostaining relative to control
[7] = biological target: T1, Transcription regulator protein BACH1 (Homo sapiens); assay: Inhibition of Bach1 in normal human lung fibroblasts assessed as induction of HMOX protein expression at 1.25 uM incubated for 16 to 18 hrs in presence of 0.039 uM Nrf2 activator Bardoxolone methyl by immunostaining relative to control
[8] = biological target: T1, Transcription regulator protein BACH1 (Homo sapiens); assay: Inhibition of Bach1 in normal human lung fibroblasts assessed as induction of HMOX protein expression at 0.039 uM incubated for 16 to 18 hrs in presence of 0.019 uM Nrf2 activator Bardoxolone methyl by immunostaining relative to control
[9] = biological target: T1, Transcription regulator protein BACH1 (Homo sapiens); assay: Inhibition of Bach1 in normal human lung fibroblasts assessed as induction of HMOX protein expression at 0.156 uM incubated for 16 to 18 hrs in presence of 0.0097 uM Nrf2 activator Bardoxolone methyl by immunostaining relative to control
[10] = biological target: T1, Transcription regulator protein BACH1 (Homo sapiens); assay: Inhibition of Bach1 in normal human lung fibroblasts assessed as induction of HMOX protein expression at 0.039 uM incubated for 16 to 18 hrs in presence of 0.156 uM Nrf2 activator Bardoxolone methyl by immunostaining relative to control
[11] = biological target: T1, Transcription regulator protein BACH1 (Homo sapiens); assay: Inhibition of Bach1 in normal human lung fibroblasts assessed as induction of HMOX protein expression at 0.078 uM incubated for 16 to 18 hrs in presence of 0.0024 uM Nrf2 activator Bardoxolone methyl by immunostaining relative to control
[12] = biological target: T1, Transcription regulator protein BACH1 (Homo sapiens); assay: Inhibition of Bach1 in normal human lung fibroblasts assessed as induction of HMOX protein expression at 0.019 uM incubated for 16 to 18 hrs in presence of 0.156 uM Nrf2 activator Bardoxolone methyl by immunostaining relative to control
[13] = biological target: T1, Transcription regulator protein BACH1 (Homo sapiens); assay: Inhibition of Bach1 in normal human lung fibroblasts assessed as induction of HMOX protein expression at 1.25 uM incubated for 16 to 18 hrs by immunostaining relative to control
[14] = biological target: T1, Transcription regulator protein BACH1 (Homo sapiens); assay: Inhibition of Bach1 in normal human lung fibroblasts assessed as induction of HMOX protein expression at 0.039 uM incubated for 16 to 18 hrs in presence of 0.0048 uM Nrf2 activator Bardoxolone methyl by immunostaining relative to control
[15] = biological target: T1, Transcription regulator protein BACH1 (Homo sapiens); assay: Inhibition of Bach1 in normal human lung fibroblasts assessed as induction of HMOX protein expression at 0.078 uM incubated for 16 to 18 hrs in presence of 0.019 uM Nrf2 activator Bardoxolone methyl by immunostaining relative to control
[16] = biological target: T1, Transcription regulator protein BACH1 (Homo sapiens); assay: Inhibition of Bach1 in normal human lung fibroblasts assessed as induction of HMOX protein expression at 0.312 uM incubated for 16 to 18 hrs by immunostaining relative to control
[17] = biological target: T1, Transcription regulator protein BACH1 (Homo sapiens); assay: Inhibition of Bach1 in normal human lung fibroblasts assessed as induction of HMOX protein expression at 1.25 uM incubated for 16 to 18 hrs in presence of 0.0024 uM Nrf2 activator Bardoxolone methyl by immunostaining relative to control
[18] = biological target: T1, Transcription regulator protein BACH1 (Homo sapiens); assay: Inhibition of Bach1 in normal human lung fibroblasts assessed as induction of HMOX protein expression at 0.312 uM incubated for 16 to 18 hrs in presence of 0.156 uM Nrf2 activator Bardoxolone methyl by immunostaining relative to control
[19] = biological target: T1, Transcription regulator protein BACH1 (Homo sapiens); assay: Inhibition of Bach1 in normal human lung fibroblasts assessed as induction of HMOX protein expression at 1.25 uM incubated for 16 to 18 hrs in presence of 0.0048 uM Nrf2 activator Bardoxolone methyl by immunostaining relative to control
[20] = biological target: T1, Transcription regulator protein BACH1 (Homo sapiens); assay: Inhibition of Bach1 in normal human lung fibroblasts assessed as induction of HMOX protein expression at 0.312 uM incubated for 16 to 18 hrs in presence of 0.0048 uM Nrf2 activator Bardoxolone methyl by immunostaining relative to control
[21] = biological target: T1, Transcription regulator protein BACH1 (Homo sapiens); assay: Inhibition of Bach1 in normal human lung fibroblasts assessed as induction of HMOX protein expression at 0.019 uM incubated for 16 to 18 hrs in presence of 0.0097 uM Nrf2 activator Bardoxolone methyl by immunostaining relative to control

fold change (FC) [1]: 16.8 | fold change (FC) [2]: 15.9 | fold change (FC) [3]: 12.5 | fold change (FC) [4]: 17.7 | fold change (FC) [5]: 17.9 | fold change (FC) [6]: 18.7 | fold change (FC) [7]: 15.6 | fold change (FC) [8]: 8.57 | fold change (FC) [9]: 12.1 | fold change (FC) [10]: 17.2 | fold change (FC) [11]: 4.25 | fold change (FC) [12]: 22.9 | fold change (FC) [13]: 16.2 | fold change (FC) [14]: 3.04 | fold change (FC) [15]: 13.2 | fold change (FC) [16]: 9.82 | fold change (FC) [17]: 16.1 | fold change (FC) [18]: 19.2 | fold change (FC) [19]: 17.3 | fold change (FC) [20]: 13.6 | fold change (FC) [21]: 7.14
Structure (SMILES): CNC(=O)c1ccc2c(c1)nc(Nc1nc3ccc(OC(F)(F)F)cc3s1)n2C
